Reference: ChEMBL document CHEMBL4622926, “Fibroblast growth factor receptor modulators employing diamines with reduced phospholipidosis-inducing potential” (Bioorg Med Chem, 2020)

What was measured:
[1] = Volume of distribution in Crl:CD(SD) rat at 1 mg/kg, iv by LC-MS/MS analysis; format: ADME, organism-based; details: in vivo
CYP3A4 = CYP3A4 (Homo sapiens, UniProt P08684); assay: (§1) Mechanism based inactivation of CYP3A4 in human liver microsome assessed as remaining activity at 100 uM preincubated for 30 mins followed testosterone addition and measured after 10 mins by LC-MS/MS analysis relative to control; format: ADME, microsomes; details: human liver microsomes, probe testosterone, read-out: Activity
Chain of CYP3A4 (P08684 whole entry): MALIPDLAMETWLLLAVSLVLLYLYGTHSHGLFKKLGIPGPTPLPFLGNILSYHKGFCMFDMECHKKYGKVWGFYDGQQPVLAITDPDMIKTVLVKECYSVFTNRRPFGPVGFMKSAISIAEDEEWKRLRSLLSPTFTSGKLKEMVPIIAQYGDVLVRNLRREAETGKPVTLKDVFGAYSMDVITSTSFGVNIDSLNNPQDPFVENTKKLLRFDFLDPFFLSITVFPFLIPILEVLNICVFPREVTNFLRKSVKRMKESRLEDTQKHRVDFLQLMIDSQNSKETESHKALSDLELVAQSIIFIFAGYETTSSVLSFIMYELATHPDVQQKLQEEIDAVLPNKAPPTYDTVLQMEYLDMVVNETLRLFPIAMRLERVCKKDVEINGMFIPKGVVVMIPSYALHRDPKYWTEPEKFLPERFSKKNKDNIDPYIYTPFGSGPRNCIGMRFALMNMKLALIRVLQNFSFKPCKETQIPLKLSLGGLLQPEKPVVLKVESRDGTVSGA

Rattus norvegicus [2] = assay: Neuroprotective activity against microsphere induced Crl:CD(SD) rat cerebral embolism model assessed as recovery of motor coordination by measuring latency time at 1 mg/kg, po administered daily for 10 days starting from day 1 post microsphere injection and measured at 2 weeks after microsphere injection by rotarod test (reference value: 189.1 secs); format: functional
[3] = Elimination half life in Crl:CD(SD) rat at 1 mg/kg, iv by LC-MS/MS analysis; format: ADME, organism-based; details: in vivo, read-out: beta t1/2 (converted)
[4] = Clearance in Crl:CD(SD) rat at 1 mg/kg, iv by LC-MS/MS analysis; format: ADME, organism-based; details: in vivo
[5] = AUC in Crl:CD(SD) rat at 10 mg/kg, po by LC-MS/MS analysis; format: ADME, organism-based; details: in vivo
[6] = Oral bioavailability in Crl:CD(SD) rat at 10 mg/kg by LC-MS/MS analysis; format: ADME, organism-based; details: in vivo
[7] = Ratio of drug level in Crl:CD(SD) rat brain to plasma at 1 mg/kg, iv measured after 1 hr by LC-MS/MS analysis; format: ADME, organism-based
[8] = Drug metabolism in human liver microsomes assessed as carboxylesterase-mediated hydrolytic rate for diamine compound formation at 100 uM incubated for 60 mins in absence of NADPH measured per mg protein by LC-MS/MS analysis; format: ADME; details: 1 h
[9] = Partition coefficient, logP of compound by RP-HPLC analysis; format: physicochemical; details: octanol/water
Cytochrome P450 3A4 = Cytochrome P450 3A4 (Homo sapiens, UniProt P08684); assay: as §1; format: ADME, microsomes; details: microsomes, 10 min, 100 µM
Chain of Cytochrome P450 3A4 (P08684 whole entry): as above

Rattus norvegicus [10] = species on record: Rattus norvegicus; assay: Modulation of FGFR in Wistar rat cerebrocortical/hippocampal neuronal cells assessed as protection against glutamate-induced neuronal cell death by measuring cell survival at 10 uM pretreated for 24 hrs followed by glutamate-stimulation by CCK8 assay relative to SUN13837
[11] = AUC in Crl:CD(SD) rat at 5 mg/kg, po by LC-MS/MS analysis; format: ADME, organism-based; details: in vivo
[12] = Oral bioavailability in Crl:CD(SD) rat at 5 mg/kg by LC-MS/MS analysis; format: ADME, organism-based; details: in vivo

| SMILES | activity at 10 min, 100 µM (CYP3A4) [%] | logP ([9]; read-out: logP) | Activity (Rattus norvegicus [10]) [%] | further results |
| --- | --- | --- | --- | --- |
| Cc1nc(OCC(=O)N(C)C2CCN(Cc3ccccc3)CC2)nc(C)c1N | 60 |  |  | Vd [1]: 2.3 L/kg; Time (Rattus norvegicus [2]): 307 s; half-life [3]: 1.4 h; clearance [4]: 41.7 mL/min/kg; AUC [5]: 3700 ng·h/mL; bioavailability [6]: 70%; Kp at 1 h [7]: 0.15; Drug metabolism [8]: 7.2 pmol/min |
| Cc1nc(OCC(=O)N(C)C2CN(Cc3ccccc3)CC2F)nc(C)c1N (centres undefined) |  | 3.7 |  | Activity (Cytochrome P450 3A4): 16% |
| CN(C(=O)COc1ccc(Cl)nn1)C1CCN(CC2CC2(F)F)CC1 (centres undefined) | 99 | 3.1 | 105 | Vd [1]: 4.2 L/kg; Time (Rattus norvegicus [2]): 315.5 s; half-life [3]: 1.7 h; clearance [4]: 38.3 mL/min/kg; AUC [11]: 1590 ng·h/mL; bioavailability [12]: 73%; Kp at 1 h [7]: 0.92; Drug metabolism [8]: 0 pmol/min |
| C[C@@H]1C[C@H]2[C@@H]3CCC4=CC(=O)C=C[C@]4(C)[C@@]3(F)[C@@H](O)C[C@]2(C)[C@@]1(O)C(=O)CO [DEXAMETHASONE] |  | 2.82 |  |  |
| Cc1nc(OCC(=O)N(C)C2CN(Cc3ccccc3)C2)nc(C)c1N | 58 | 2.1 | 127 |  |
| Cc1nc(OCC(=O)N(C)C2CCN(Cc3ncccc3F)CC2)nc(C)c1N | 62 | 1.7 | 119 |  |
| Cc1nc(OCC(=O)N(C)C2CCN(Cc3ncccn3)CC2)nc(C)c1N | 99 | 1 | 96 |  |
| Cc1nc(OCC(=O)N(C)C2CCN(CC(F)F)CC2)nc(C)c1N | 98 | 2 | 76 |  |
| Cc1nc(OCC(=O)N(C)C2CCN(C3(C)COC3)CC2)nc(C)c1N | 97 | 1.2 | 59 |  |
| Cc1nc(OCC(=O)N(C)C2CCN(CC(F)(F)F)CC2)nc(C)c1N | 75 | 2.6 | 103 |  |
| Cc1nc(OCC(=O)N(C)C2CCN(CC3CC3(F)F)CC2)nc(C)c1N.Cl (racemic) | 86 | 2.2 | 189 | Vd [1]: 3.2 L/kg; half-life [3]: 2.7 h; clearance [4]: 38.3 mL/min/kg; AUC [11]: 1100 ng·h/mL; bioavailability [12]: 52%; Kp at 1 h [7]: 0.12 |
| Cc1nc(OCC(=O)N(C)C2CN(Cc3ccccc3)CC2F)nc(C)c1N.Cl (centres undefined) |  |  |  | logP [9]: 4.8; Activity (Cytochrome P450 3A4): 96% |
| Cc1nc(OCC(=O)N(C)C2CCN(Cc3ccccc3)C2)nc(C)c1N (centres undefined) | 55 | 2.6 | 77 |  |
| Cc1nc(OCC(=O)N(C)C2CCN(CC(C)(C)O)CC2)nc(C)c1N | 97 | 0.7 | 74 |  |
| CN(C(=O)COc1ccc(Cl)nn1)C1CCN(Cc2ncccc2F)CC1 | 100 | 2.6 | 44 |  |
| Cc1nc(OCC(=O)N(C)[C@H]2CN(Cc3ccccc3)C[C@@H]2O)nc(C)c1N (relative stereo) | 55 | 2.4 | 93 |  |
| Cc1nc(OCC(=O)N(C)C2CCN(C3COC3)CC2)nc(C)c1N | 95 | 1.1 | 78 |  |
| CC(C)Cc1ccc(C(C)C(=O)O)cc1 (centres undefined) [IBUPROFEN] |  | 2.97 |  |  |
| Cc1nc(OCC(=O)N2CC[C@@H]3[C@H]2CN3Cc2ccccc2)nc(C)c1N | 40 | 2.8 | 87 |  |
| CN(C(=O)COc1ccc(Cl)nn1)C1CCN(CC(F)(F)F)CC1 | 100 | 4 | 74 |  |
